Several values for one entry are separate records, joined by “and”; a condition that tells them apart may be missing. Identical values can stand only once.
Legend:
[1] = system: human breast epithelium; conditions: female, mouse, in vivo, 8 months
Method: All the engrafted glands were processed for histological analysis and H&E stained.
(§7) Mice were anesthetized by intraperitoneal injection with 10 mg/kg xylazine and 90 mg/kg ketamine (Graeub) and injected intraductally with 10 μl cell suspension per gland. Bioluminescence imaging was performed as described (Sflomos et al, 2016). After 3–10 weeks, when bioluminescence from individual glands reached 10^7 total flux (p/s/cm2/sr), animals were assigned to different treatment groups and hormone pellets implanted subcutaneously. Enzalutamide (Selleckchem, Catalog No. S1250) dissolved in 15% DMSO in PEG300 was injected intraperitoneally 3 times/week at 30 mg/kg.

[2] = system: KLK3; assay: KLK3 mRNA in xenografted HBECs by RT-PCR with human-specific primers; assay type: in vivo; conditions: 21 days pellets (Fig 5M)
Excerpt: Consistent with AR and PR sharing a common hormone response element (Claessens et al, 1996), KLK3 was induced upon progestin stimulation. […] This is in agreement with previous findings that KLK3 expression is under the control of both androgens and progestins in T47D cells (Zarghami et al, 1997).
(§1) Next, we sought for a readout of in vivo cell proliferation different from radiance. […] Given that MKI67 expression could replace the luciferase measurements as a readout, we used a modified experimental setup for a second round of experiments. We derived HBECs from viably frozen mammoplasty samples (Appendix Table S3) and engrafted them to different mammary glands of NSG females without viral infection. Four months later, the 24 recipient females, each engrafted with 5 different mammoplasties received pellets containing either vehicle, progesterone, or 1 of 6 progestins for 21 days. At sacrifice, xenografted glands were histologically sectioned and cell proliferation was quantified using co‐IF with anti‐MKI67 and anti‐hECAD antibodies. For one of the mammoplasties, we were able to obtain measurements for all experimental conditions (Fig 5I). […] For the remaining mammoplasties, between 3 and 8 different experimental conditions were successfully quantified (Appendix Table S4). […] CPA (P < 0.0001) decreased proliferation, whereas CMA and DSP had no effect (Fig 5K). As AR signaling increases AR protein levels, we performed co‐IF for AR and hECAD as another means to assess AR signaling activity.
(§2) Human breast microstructures and mouse organoids were homogenized in Trizol (Invitrogen). Aqueous phase containing RNA was chloroform extracted and processed with miRNeasy extraction kit (Qiagen). cDNA was synthesized using random p(dN)6 primers (Roche) and MMLV reverse transcriptase (Invitrogen). SYBR Green PCR Core Reagent System (Qiagen) was used for semi‐quantitative real time (RT‐PCR) using the following primers.

[3] = system: HBECs; assay: In vivo growth of intraductal HBEC xenografts measured by radiance; conditions: 60 days of treatment, subcutaneous pellets
Excerpt: To compare the effects of progesterone and different progestins on HBECs in vivo, we infected single cell suspensions obtained from fresh reduction mammoplasty specimens with GFP‐luciferase2‐expressing lentiviruses. The infected cell mixture was grafted intraductally to up to 5 glands of as many recipients as possible. The engraftment and growth of the xenografted cells were monitored weekly by in vivo imaging. When radiance reached > 10E07 on average per mammary gland, 60‐day‐release pellets were implanted subcutaneously, usually within 3–10 weeks after cell injection. At sacrifice, blood was collected and plasma levels of the administered compounds as well as endogenous steroid hormones were determined by liquid chromatography‐mass spectrometry (LC‐MS) (Laszlo et al, 2019).
Next, the in vivo growth of HBEC xenografts stimulated with progesterone or different progestins was analyzed. […] In addition, the fold change radiance of treated versus untreated samples at endpoint was calculated (Fig 5A–C).
as §7
Pellets were prepared by mixing the required amount of part A, MP3745/E81949 and part B, MP3744/E81950 of low consistency silicon elastomer (MED‐4011) and hormone powder to homogeneity. Mix was transferred to a syringe and incubated at 37°C overnight. The silicon‐hormone mass was removed from the syringe and cut to pieces, as described (Duss et al, 2007). The original protocol was adapted for different doses as described below.

[4] = system: Wnt4; assay: Wnt4 transcript levels by RT-PCR in mouse mammary organoids stimulated ex vivo; assay type: cell-based; conditions: for Wnt4 transcript levels over vehicle-treated control: BalbC females, 6 h of stimulation
Method: (§3) Next, we stimulated mouse mammary organoids derived from several BalbC females with R5020 or different progestins (Fig 1A). […] No significant change in Rankl and Wnt4 transcript levels was detected during the first 2 h (Appendix Fig S1D). By 6 h of R5020 stimulation, Rankl and Wnt4 transcript levels increased 22.4 and 5.8‐fold over the vehicle‐treated control, respectively.
(§4) Animal experiments were performed in accordance with protocol approved by the Service de la Consommation et des Affaires vétérinaires of Canton de Vaud (VD 1865.3, VD 1865.4). NOD. Cg‐Prkdc^scid Il2rg^tm1Wjl/SzJ mice (Charles River), BalbC, and C57Bl6 breeders were purchased from Jackson Laboratories. Mammary glands were isolated from 18‐ to 35‐week‐old mice, lymph nodes removed, minced with surgical blades, and digested in DMEM/F12, 1% penicillin/streptomycin B with collagenase A 0.25 mg/ml (Roche). […] Fat was removed, and pellet containing organoids washed with phosphate‐buffered saline (PBS), resuspended 5 min in 3 ml red cell blood lysis buffer and washed twice with PBS.
as §2

[5] = system: endogenous hormone levels in mice; assay: Endogenous steroid hormone plasma levels in treated host mice by LC-MS; assay type: in vivo, mouse; conditions: xenografted NSG females with pellets
Excerpt: Next, we assessed whether progesterone and progestins differentially affected endogenous hormone levels in mice. Plasma 17‐β‐estradiol levels were not affected by any of the treatments (Fig 4H). […] Plasma testosterone levels were not altered by any treatment with the exception of DSP, which decreased them (Fig 4H). Thus, prolonged exposures to progestins differentially affect endogenous progesterone plasma levels and DSP decreases testosterone plasma levels in host mice.

[6] = system: AR; design: method as in earlier work; conditions: various assays, ref Fuhrmann et al, 1995, Muhn et al, Bouchard, 2005, Mishell, 2008, Schneider et al, 2009, Africander et al, 2011, Louw‐du Toit et al, 2017; cited from earlier work
[7] = system: Rankl; assay: Rankl transcript levels by RT-PCR in mouse mammary organoids stimulated ex vivo; assay type: cell-based; conditions: for Rankl transcript levels over vehicle-treated control: BalbC females, 6 h of stimulation
Method: as §3, §4, §2

[8] = system: HBECs; assay: MKI67/Ki67 expression in xenografted HBECs; assay type: in vivo, human; conditions: 21 days pellets; for cell proliferation (KI67 and hECAD double+ cells), overall analysis: HBECs from 11 different patients; for cell proliferation (KI67 and hECAD double+ cells): one mammoplasty (M310)
Excerpt: as §1
Tissues were fixed for 2 h at room temperature in 4% paraformaldehyde and paraffin‐embedded. Dewaxed and rehydrated paraffin sections were pretreated in 10 mM Na citrate (pH 6.0) at 95° for 20 min. Blocking was performed with 1% BSA for 60 min. Primary antibodies used were as follows: Ki67 (rabbit α‐Ki67, clone Sp6, Spring Amsbio, dilution 1:200), ER (rabbit α‐ER, clone Sp1, Zytomed RTU), PR (rabbit α‐PR, clone 1E2, Ventana RTU), AR (rabbit α‐AR, clone SP107, Thermo Fisher, diluted 1:200), CK7 (rabbit α‐CK7, clone Sp52, Abcam, diluted 1:500), CK19 (mouse KS19.2 (Z105.6), American Research Products Inc. (diluted 1:50), and mouse α‐ECAD (clone G‐10, sc‐8426, diluted 1:100). For IHC, chromogenic revelation was performed with ChromoMap DAB kit (Roche Diagnostics, Switzerland) and sections were counterstained with Mayer’s hematoxylin. For fluorescence microscopy, nuclei were counterstained with DAPI (Sigma). IHC for ER, PR, and AR was performed on Discovery Ventana ULTRA (44). IHC images were acquired on Leica DM 2000 with Leica DFC450 C camera. IF images were acquired on Zeiss LSM700 confocal microscope. Slides were scanned with Olympus VS120‐L100 slide scanner with 20×/0.75 objective and Pike F505 C Color camera. Images were loaded into QuPath using the BioFormats extension (Bankhead et al, 2017).

[9] = system: Wnt4; assay: Wnt4 induction by R5020 or LNG in mouse mammary organoids co-treated with AR antagonists; assay type: cell-based; conditions: antagonist 100 µM, 6 h, C57Bl6-derived organoids
Method: (§5) Enzalutamide (100 µM) abrogated Rankl induction by R5020 (P < 0.05) but had no effect on Wnt4 induction (Fig 1H).
(§6) Animal experiments were performed in accordance with protocol approved by the Service de la Consommation et des Affaires vétérinaires of Canton de Vaud (VD 1865.3, VD 1865.4). NOD. Cg‐Prkdc^scid Il2rg^tm1Wjl/SzJ mice (Charles River), BalbC, and C57Bl6 breeders were purchased from Jackson Laboratories. Mammary glands were isolated from 18‐ to 35‐week‐old mice, lymph nodes removed, minced with surgical blades, and digested in DMEM/F12, 1% penicillin/streptomycin B with collagenase A 0.25 mg/ml (Roche). Tissue was concomitantly stimulated with hormones for 1, 2, or 6 h and centrifuged at 652 g for 5 min. Fat was removed, and pellet containing organoids washed with phosphate‐buffered saline (PBS), resuspended 5 min in 3 ml red cell blood lysis buffer and washed twice with PBS.
as §2

[10] = system: Rankl; assay: Rankl induction by R5020 or LNG in mouse mammary organoids co-treated with AR antagonists; assay type: cell-based; conditions: 6 h
Method: as §5, §6, §2

[11] = system: HBECs; assay: In vivo growth of HBEC xenografts treated with LNG with or without enzalutamide; design: species or system human; conditions: enzalutamide 30 mg/kg intraperitoneally 3 times/week, the 2 LNG-responsive PDXs
Method: Mice were anesthetized by intraperitoneal injection with 10 mg/kg xylazine and 90 mg/kg ketamine (Graeub) and injected intraductally with 10 μl cell suspension per gland. […] After 3–10 weeks, when bioluminescence from individual glands reached 10^7 total flux (p/s/cm2/sr), animals were assigned to different treatment groups and hormone pellets implanted subcutaneously. Enzalutamide (Selleckchem, Catalog No. S1250) dissolved in 15% DMSO in PEG300 was injected intraperitoneally 3 times/week at 30 mg/kg.

[12] = BalbC-derived organoids, 24 h of stimulation
[13] = antagonist 100 µM, C57Bl6-derived organoids

SMILES	morphologic changes in xenografts (H&E) [1]	KLK3 transcripts levels [2]	growth (course of radiance) of engrafted HBECs versus control [3]	relative radiance at endpoint over control (FC) [3]	Wnt4 transcript levels over vehicle-treated control [4]	Wnt4 transcript induction [4, 12]	Wnt4 transcript induction ([4]; C57Bl/6 mice, 6 h, 20 nM)	endogenous progesterone plasma levels (estrous cycle-related variation) [5]	androgenic / anti-androgenic activity [6]	Rankl transcript levels over vehicle-treated control [7]	Rankl transcript induction [7, 12]	Rankl transcript induction ([7]; C57Bl/6 mice, 6 h, 20 nM)	cell proliferation (KI67 and hECAD double+ cells), overall analysis [8]	cell proliferation (KI67 and hECAD double+ cells) [8]	effect of AR antagonist on Wnt4 induction by LNG [9]	effect of AR antagonist on Wnt4 induction by R5020 [9]	effect of AR antagonist on Rankl induction ([10]; antagonist 10 µM, n = 3)	effect of AR antagonist on Rankl induction by LNG [10, 13]	effect of AR antagonist on Rankl induction by R5020 [10, 13]	effect of enzalutamide on LNG-induced proliferation [11]
C#C[C@]1(O)CC[C@H]2[C@@H]3CCC4=CC(=O)CC[C@@H]4[C@H]3C(=C)C[C@@]21CC [DSG, 3‐ketodesogestrel]	3 or 4 grafts showed diffuse and in some cases marked acinar proliferation	increased	increased growth	2 fold and 2.0 fold	8.5 fold	32.2 fold	4.2 fold	suppressed	androgenic activity	22.3 fold	177.2 fold	15.5 fold	increased	significantly increased						
C#C[C@]1(O)C=C[C@H]2[C@@H]3CCC4=CC(=O)CC[C@@H]4[C@H]3CC[C@@]21CC [GSN, gestodene]	3 or 4 grafts showed diffuse and in some cases marked acinar proliferation	increased	increased growth	2.2 fold	4.9 fold	33.5 fold	3.6 fold	suppressed	androgenic activity	18.2 fold	617.2 fold	21.5 fold	increased	significantly increased						
CNC(=O)c1ccc(N2C(=S)N(c3ccc(C#N)c(C(F)(F)F)c3)C(=O)C2(C)C)cc1F [enzalutamide]															not affected	no effect	failed to reach significance	significantly reduced	abrogated	decreased the proliferative effects of LNG
